The target of experiment [1] is T1, High affinity nerve growth factor receptor (Homo sapiens, UniProt P04629). Description: (§1) Inhibition of receptor Tyrosine kinase A, TrkA (nerve growth factor receptor).
Target sequence in this assay (P04629 whole entry): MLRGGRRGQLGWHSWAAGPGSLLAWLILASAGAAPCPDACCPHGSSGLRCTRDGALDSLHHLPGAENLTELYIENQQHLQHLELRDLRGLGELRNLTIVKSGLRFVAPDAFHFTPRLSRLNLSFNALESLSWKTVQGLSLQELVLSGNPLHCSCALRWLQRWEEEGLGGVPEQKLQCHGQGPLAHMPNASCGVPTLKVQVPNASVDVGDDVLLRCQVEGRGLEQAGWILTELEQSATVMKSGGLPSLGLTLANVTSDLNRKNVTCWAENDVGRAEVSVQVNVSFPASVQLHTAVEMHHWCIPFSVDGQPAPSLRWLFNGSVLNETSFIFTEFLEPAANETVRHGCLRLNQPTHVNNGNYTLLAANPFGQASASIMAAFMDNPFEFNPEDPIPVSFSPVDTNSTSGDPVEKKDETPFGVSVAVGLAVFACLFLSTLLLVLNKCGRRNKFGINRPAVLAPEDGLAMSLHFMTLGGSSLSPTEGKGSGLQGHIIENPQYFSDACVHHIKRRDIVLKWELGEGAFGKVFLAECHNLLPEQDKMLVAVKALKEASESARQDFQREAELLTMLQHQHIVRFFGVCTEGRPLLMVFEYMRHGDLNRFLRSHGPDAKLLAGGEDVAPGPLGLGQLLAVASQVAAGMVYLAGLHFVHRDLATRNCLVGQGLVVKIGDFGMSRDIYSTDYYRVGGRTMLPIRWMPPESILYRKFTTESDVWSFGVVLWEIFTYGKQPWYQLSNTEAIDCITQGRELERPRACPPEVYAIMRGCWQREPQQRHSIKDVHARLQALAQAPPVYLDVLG
Experiment [2] concerns the target RAF proto-oncogene serine/threonine-protein kinase (Homo sapiens, UniProt P04049). The experiment can be described thus: Inhibition of c-Raf1 kinase.
The target of experiment [3] is Cyclin-dependent kinase 2/cyclin A (Homo sapiens, UniProt P24941). The experiment can be described thus: Inhibition of Cyclin-dependent kinase 2 cyclin A. The class given is protein-complex assay.
Experiment [4] has as its target T1, High affinity nerve growth factor receptor. The description is as §1. This is another data set of the same source.
Target sequence in this assay (P04629 33-796 limits assumed): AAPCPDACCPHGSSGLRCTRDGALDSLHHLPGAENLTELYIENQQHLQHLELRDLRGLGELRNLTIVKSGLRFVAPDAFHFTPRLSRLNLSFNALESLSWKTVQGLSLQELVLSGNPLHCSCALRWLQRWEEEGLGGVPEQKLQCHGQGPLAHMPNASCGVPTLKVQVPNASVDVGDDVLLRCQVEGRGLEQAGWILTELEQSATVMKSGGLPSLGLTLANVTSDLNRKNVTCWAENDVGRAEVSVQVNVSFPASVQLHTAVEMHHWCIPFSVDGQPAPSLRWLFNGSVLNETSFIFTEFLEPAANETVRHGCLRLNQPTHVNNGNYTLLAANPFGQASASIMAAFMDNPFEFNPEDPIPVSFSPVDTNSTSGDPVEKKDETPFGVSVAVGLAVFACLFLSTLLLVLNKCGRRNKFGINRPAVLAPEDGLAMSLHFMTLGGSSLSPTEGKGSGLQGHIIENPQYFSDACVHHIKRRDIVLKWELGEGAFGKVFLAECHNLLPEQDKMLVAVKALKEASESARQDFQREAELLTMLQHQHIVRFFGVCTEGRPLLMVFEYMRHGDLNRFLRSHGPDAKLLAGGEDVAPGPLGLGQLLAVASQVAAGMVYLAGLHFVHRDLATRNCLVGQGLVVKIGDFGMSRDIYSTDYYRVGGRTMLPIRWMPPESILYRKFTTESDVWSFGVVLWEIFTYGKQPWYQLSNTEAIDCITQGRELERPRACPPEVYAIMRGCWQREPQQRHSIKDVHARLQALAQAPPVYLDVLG
The nature of experiment [5]: Inhibition prostate cancer growth in 10 diverse animal models. The class given is functional, tissue-based. As to conditions: Prostate gland.

Structures are written as SMILES. Activity calls are given as the source filed them. The calls are words filed in the database; no cut-off is given here. Some results are limits rather than exact numbers.

Sequence of RAF proto-oncogene serine/threonine-protein kinase (P04049 whole entry): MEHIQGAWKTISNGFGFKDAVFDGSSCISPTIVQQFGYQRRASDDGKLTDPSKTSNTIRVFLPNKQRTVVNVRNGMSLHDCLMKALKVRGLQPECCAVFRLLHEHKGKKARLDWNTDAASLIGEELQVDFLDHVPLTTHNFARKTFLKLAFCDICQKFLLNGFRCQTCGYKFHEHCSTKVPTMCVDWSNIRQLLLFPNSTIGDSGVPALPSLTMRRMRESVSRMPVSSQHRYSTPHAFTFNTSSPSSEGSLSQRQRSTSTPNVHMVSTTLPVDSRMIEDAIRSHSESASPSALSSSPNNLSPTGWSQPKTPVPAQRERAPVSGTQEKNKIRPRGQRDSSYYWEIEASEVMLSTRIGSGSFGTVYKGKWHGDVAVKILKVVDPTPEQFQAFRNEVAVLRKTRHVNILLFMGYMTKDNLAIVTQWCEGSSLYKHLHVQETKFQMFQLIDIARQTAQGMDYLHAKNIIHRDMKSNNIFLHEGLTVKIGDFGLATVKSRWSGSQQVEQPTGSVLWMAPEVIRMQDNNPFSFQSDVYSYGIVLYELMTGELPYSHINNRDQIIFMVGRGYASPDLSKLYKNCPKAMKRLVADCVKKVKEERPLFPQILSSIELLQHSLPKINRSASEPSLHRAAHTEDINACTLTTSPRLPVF

Turning to `O=C1Nc2ccc3ncsc3c2/C1=C/Nc1ccc(S(=O)(=O)Nc2ccccn2)cc1`, the IC50 in experiment [1] turned out to be 0.009 µM.
Take `Cn1cc(/C=C2\C(=O)Nc3ncccc32)c2ccccc21`: the IC50 in experiment [1] was 0.012 µM; in experiment [2], 7.2 µM; in experiment [3], greater than 6 µM.
Turning to `O=C1Nc2ccccc2/C1=C1\CCc2cc(O)ccc21`, the concentration for half-maximal inhibition (IC50) in experiment [1] was 0.006 µM; in experiment [2], greater than 10 µM; in experiment [3], 8 µM.
In the case of `Cn1cc(/C=C2\C(=O)Nc3cccnc32)c2ccccc21`, the IC50 in experiment [2] is greater than 12 µM.
Consider `O=C1Nc2ncc(Br)cc2/C1=C/c1cccc(Oc2ccccc2)c1`, for which the IC50 was 0.061 µM in experiment [1], greater than 50 µM in experiment [2] and greater than 50 µM in experiment [3].
Regarding `C[C@]12O[C@H](C[C@]1(O)CO)n1c3ccccc3c3c4c(c5c6ccccc6n2c5c31)CNC4=O`, the result in experiment [4] and in experiment [5] was Active.
Consider `NS(=O)(=O)c1cccc(N/C=C2\C(=O)Nc3ccccc32)c1` [GW275616X], for which the IC50 was 0.063 µM in experiment [1], greater than 10 µM in experiment [2] and greater than 10 µM in experiment [3].
As to `CS(=O)(=O)Nc1ccc(N/C=C2\C(=O)Nc3ccccc32)cc1` [GW278681X], the IC50 in experiment [1] was 0.006 µM; in experiment [2], greater than 10 µM; in experiment [3], 8 µM.
Turning to `O=C1Nc2ccccc2/C1=C/Nc1ccc2[nH]c(=O)[nH]c2c1` [GW284408X], the IC50 was 0.007 µM in experiment [1], greater than 10 µM in experiment [2] and 2.5 µM in experiment [3].
As for `O=C1Nc2ccccc2/C1=C/Nc1ccc(-n2cncn2)cc1` [GW301789X], the IC50 is 0.008 µM in experiment [1], greater than 10 µM in experiment [2] and 7.2 µM in experiment [3].
As for `O=C1Nc2ccc(I)cc2C1=Cc1cc(Br)c(O)c(Br)c1` [GW305074X], the IC50 in experiment [1] amounted to 4.7 µM.
`COc1ccccc1-c1cc(/C=C2\C(=O)Nc3ncc(Br)cc32)cc(Br)c1O` [GW442130X]: the results for the IC50 in experiment [1], in experiment [2] and in experiment [3] were 0.008 µM, 0.7 µM and 10.4 µM, respectively.
